Reference: ChEMBL document CHEMBL1201862, “PubChem BioAssay data set” (2004)
Activity calls are given as the source filed them.

Legend:
Escherichia coli [1] = experiment: microbe, parasite or virus in culture
Escherichia coli [2] = experiment: microbe, parasite or virus in culture; remark: listed apart in the source
[3] = microbe, parasite or virus in culture; type: functional; settings: Mycobacterium tuberculosis
Streptococcus = experiment: GAS UMAA2166 growth inhibition – luminescence, BacTiterGlo, counter-screen for streptokinase expression inhibitor project, dose response (AID 1915); type: functional, organism-based;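 further: potency for reduction of bacterial viability or growth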
[4] = system: Streptococcus sp. 'group A'; experiment: Streptococcus pyogenes SK(-)GAS viability under kanamycin – luminescence, BacTiterGlo, confirmation, counter-screen for streptokinase expression inhibitor project, dose response (AID 1900); type: functional, organism-based
[5] = HIV-1 AD8 envelope cell-cell fusion blockers – cherry-pick, dose response (AID 652062); type: functional, cell-based;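 further: luciferase signal from cell-cell fusion driven by HIV-1 clade B AD8 Env; potency is for inhibitors of fusion seen as a drop in luminescence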
[6] = blockers of HIV-1 envelope-mediated cell-cell fusion – cherry-pick, dose response (AID 652057); type: functional, cell-based
[7] = target: Delta-type opioid receptor (Homo sapiens, UniProt P41143); experiment: Counterscreen for agonists of heterodimerization of the mu 1 (OPRM1) and delta 1 (OPRD1) opioid receptors: Luminescence-based cell-based high throughput dose response assay to identify agonists of OPRD1 homodimerization. [Related pubchem assays (depositor defined):AID504326, AID504355, AID504692, AID504904, AID504905]; type: functional
Chain of Delta-type opioid receptor (P41143 whole entry, the tested form may be a part): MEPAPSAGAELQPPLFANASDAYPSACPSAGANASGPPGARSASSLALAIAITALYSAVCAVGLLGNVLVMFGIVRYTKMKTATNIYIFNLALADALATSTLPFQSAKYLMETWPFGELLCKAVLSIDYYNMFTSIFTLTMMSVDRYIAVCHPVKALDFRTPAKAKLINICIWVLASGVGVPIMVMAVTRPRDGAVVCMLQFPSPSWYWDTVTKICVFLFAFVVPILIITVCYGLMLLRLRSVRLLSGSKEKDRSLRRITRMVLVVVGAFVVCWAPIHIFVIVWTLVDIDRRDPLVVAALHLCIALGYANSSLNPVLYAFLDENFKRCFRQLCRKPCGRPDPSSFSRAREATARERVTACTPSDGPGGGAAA

[8] = off-target signal loss in HeLa-CEM21 co-culture – HeLa F-luc CTL cells, cherry-picked, counter-screen for HIV-1 Env fusion inhibitor project, dose response (AID 652040); type: functional, cell-based;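 further: potency for signal decrease marking cytotoxic or nonspecific inhibition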
[9] = target: T1, Short transient receptor potential channel 4 (Mus musculus, UniProt Q9QUQ5); experiment: calcium entry via TRPC4 opening agents – cell-based, HEK293 TRPC4/mu-opioid, Fluo-4 calcium, dose response (AID 434937); type: functional
T1 sequence (Q9QUQ5 whole entry): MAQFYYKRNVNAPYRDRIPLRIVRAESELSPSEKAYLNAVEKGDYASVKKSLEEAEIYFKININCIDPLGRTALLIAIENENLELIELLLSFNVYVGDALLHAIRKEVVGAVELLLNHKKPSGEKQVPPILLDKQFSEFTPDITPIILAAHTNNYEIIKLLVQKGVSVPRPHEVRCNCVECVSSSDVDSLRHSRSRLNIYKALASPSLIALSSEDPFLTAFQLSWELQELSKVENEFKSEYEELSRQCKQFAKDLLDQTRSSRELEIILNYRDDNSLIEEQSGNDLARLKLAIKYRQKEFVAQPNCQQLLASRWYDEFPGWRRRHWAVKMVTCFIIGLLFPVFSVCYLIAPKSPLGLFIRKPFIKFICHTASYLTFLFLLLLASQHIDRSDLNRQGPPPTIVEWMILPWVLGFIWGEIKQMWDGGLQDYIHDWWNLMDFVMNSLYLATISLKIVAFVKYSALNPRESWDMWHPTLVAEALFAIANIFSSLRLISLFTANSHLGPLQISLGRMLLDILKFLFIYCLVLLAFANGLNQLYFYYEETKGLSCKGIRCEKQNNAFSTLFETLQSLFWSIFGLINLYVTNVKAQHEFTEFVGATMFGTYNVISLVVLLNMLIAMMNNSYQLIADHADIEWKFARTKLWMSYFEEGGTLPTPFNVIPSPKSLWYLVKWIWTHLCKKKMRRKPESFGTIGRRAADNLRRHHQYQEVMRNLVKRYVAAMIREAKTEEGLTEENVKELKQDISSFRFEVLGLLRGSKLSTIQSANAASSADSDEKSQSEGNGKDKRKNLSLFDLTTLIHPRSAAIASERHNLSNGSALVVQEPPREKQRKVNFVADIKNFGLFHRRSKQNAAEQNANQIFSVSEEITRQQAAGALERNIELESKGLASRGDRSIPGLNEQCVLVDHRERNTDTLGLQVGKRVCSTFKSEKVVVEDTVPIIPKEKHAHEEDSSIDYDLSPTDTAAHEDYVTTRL

[10] = target: 5-hydroxytryptamine receptor 5A (Homo sapiens, UniProt P47898); experiment: Counterscreen for agonists of OPRM1-OPRD1 heterodimerization: luminescence-based cell-based high throughput dose response assay to identify agonists of 5-hydroxytryptamine (serotonin) 5A receptor (HTR5A). [Related pubchem assays (depositor defined):AID504326, AID504355, AID504692, AID504904, AID504905]; type: functional
Chain of 5-hydroxytryptamine receptor 5A (P47898 whole entry, the tested form may be a part): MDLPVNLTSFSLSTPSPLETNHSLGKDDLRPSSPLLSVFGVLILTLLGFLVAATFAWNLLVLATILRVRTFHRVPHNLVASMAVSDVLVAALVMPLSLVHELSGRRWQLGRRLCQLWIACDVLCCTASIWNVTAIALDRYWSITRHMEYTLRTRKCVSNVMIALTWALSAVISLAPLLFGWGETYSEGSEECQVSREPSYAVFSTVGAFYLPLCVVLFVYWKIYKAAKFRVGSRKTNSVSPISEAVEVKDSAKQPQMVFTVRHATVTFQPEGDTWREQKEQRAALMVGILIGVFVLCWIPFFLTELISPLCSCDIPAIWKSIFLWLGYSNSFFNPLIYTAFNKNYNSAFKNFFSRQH

[11] = viability loss in CEM21 cells – cell-based, CellTiter-Glo luminescence, cherry-picked, cytotoxicity control for viral fusion inhibitor project, dose response (AID 652042); type: functional;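 further: potency for signal decrease meaning cytotoxicity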
[12] = blockers of HIV-1 ZM109 envelope-driven cell-cell fusion – HeLa effector, CEM target cells, luciferase, cherry-pick, dose response (AID 652058); type: functional, cell-based;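 further: luciferase signal from HIV-1 Env mediated cell-cell fusion of effector and target cells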
Mu-type opioid receptor = Mu-type opioid receptor (Homo sapiens, UniProt P35372); experiment: Counterscreen for agonists of heterodimerization of the mu 1 (OPRM1) and delta 1 (OPRD1) opioid receptors: Luminescence-based cell-based high throughput dose response assay to identify agonists of OPRM1 homodimerization.; type: functional;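 further: U2OS cells expressing OPRM1 and beta-arrestin as split beta-galactosidase partners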
Chain of Mu-type opioid receptor (P35372 whole entry): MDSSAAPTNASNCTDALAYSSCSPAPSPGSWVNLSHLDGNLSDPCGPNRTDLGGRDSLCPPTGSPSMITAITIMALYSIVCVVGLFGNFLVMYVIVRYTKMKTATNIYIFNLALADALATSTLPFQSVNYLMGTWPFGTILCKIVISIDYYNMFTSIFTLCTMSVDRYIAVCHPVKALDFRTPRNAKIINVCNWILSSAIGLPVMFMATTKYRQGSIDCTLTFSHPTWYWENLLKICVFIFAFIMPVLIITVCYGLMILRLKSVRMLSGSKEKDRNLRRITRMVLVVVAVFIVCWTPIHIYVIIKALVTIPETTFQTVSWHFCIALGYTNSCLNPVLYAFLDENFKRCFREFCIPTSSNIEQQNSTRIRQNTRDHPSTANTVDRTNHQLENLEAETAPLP

[13] = target: T2, Low molecular weight phosphotyrosine protein phosphatase (Homo sapiens, UniProt P24666); type: functional; settings: read-out: IC50_Mean;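 further: Dose-response confirmation assay measuring inhibition of LMPTP enzyme activity by fluorescence intensity read-out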
T2 sequence (P24666 whole entry): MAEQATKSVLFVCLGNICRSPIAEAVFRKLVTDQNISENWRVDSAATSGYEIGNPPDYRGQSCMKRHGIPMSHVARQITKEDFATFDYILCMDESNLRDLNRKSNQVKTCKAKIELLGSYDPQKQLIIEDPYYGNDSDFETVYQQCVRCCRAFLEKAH

DNA topoisomerase = DNA topoisomerase (Yersinia pestis, UniProt A0A2S9PM60); experiment: Yersinia topoisomerase I cleavage product accumulation – biochemical, cherry-pick, dose response (AID 588525)
Chain of DNA topoisomerase (A0A2S9PM60 whole entry): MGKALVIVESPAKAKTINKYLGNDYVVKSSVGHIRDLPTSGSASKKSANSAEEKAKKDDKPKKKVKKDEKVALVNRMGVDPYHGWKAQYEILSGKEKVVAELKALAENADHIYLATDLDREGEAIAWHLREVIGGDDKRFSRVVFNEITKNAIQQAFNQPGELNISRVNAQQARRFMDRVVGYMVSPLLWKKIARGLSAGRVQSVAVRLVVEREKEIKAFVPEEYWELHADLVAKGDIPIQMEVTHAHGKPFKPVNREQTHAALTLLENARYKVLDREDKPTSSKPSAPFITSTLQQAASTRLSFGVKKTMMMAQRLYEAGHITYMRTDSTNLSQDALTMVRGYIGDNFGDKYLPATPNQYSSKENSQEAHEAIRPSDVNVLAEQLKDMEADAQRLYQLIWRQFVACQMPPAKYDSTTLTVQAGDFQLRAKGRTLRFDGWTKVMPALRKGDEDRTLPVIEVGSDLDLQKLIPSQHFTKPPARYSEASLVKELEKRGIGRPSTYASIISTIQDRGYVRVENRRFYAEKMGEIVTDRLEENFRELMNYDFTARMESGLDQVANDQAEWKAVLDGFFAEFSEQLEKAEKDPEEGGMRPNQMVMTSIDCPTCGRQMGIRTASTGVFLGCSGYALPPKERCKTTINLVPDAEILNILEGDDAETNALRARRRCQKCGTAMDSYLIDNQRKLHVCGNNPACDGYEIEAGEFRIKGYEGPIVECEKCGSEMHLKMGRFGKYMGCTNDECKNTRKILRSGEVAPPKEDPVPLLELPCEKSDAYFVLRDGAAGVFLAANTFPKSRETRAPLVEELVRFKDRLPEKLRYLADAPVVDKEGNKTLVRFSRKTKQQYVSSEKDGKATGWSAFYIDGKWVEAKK

NS3 = NS3 (Hepatitis C virus, UniProt A3EZJ3); experiment: PubChem AID 2173; parameters: species or system Hepacivirus hominis
Chain of NS3 (A3EZJ3 whole entry): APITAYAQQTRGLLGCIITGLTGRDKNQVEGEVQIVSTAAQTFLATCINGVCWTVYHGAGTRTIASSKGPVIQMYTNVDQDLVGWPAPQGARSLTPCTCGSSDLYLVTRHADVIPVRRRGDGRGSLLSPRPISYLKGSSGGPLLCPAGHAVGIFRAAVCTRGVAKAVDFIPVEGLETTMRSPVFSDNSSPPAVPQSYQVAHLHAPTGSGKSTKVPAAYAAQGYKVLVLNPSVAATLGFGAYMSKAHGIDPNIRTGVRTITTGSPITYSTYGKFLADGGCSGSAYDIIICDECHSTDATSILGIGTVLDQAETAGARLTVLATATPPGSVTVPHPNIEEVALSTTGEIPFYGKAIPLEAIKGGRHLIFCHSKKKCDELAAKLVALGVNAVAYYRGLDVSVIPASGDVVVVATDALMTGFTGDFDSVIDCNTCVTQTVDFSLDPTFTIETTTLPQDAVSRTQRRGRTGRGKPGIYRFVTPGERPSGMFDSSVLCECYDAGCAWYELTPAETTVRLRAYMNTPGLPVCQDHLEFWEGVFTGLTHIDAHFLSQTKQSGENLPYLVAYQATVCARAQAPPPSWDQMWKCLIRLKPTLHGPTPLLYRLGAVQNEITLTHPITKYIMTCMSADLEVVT

cells [14] = type: functional, cell-based
cells [15] = type: functional, cell-based; remark: listed apart in the source
HeLa = experiment: ATP-based viability loss in HeLa cells – cell-based, CellTiter-Glo luminescence, cherry-pick samples, cytotoxicity control for MITF activator project, dose response (AID 540259); type: functional; settings: Homo sapiens
[16] = target: Heat shock protein HSP 90-alpha (Homo sapiens, UniProt P07900); type: functional, organism-based
[17] = target: T3, Endoribonuclease toxin MazF (Escherichia coli K-12, UniProt P0AE70); experiment: activation of MazEF endoribonuclease cleavage – biochemical, fluorescence, single-stranded RNA substrate, uHTS hits, dose response (AID 588481); type: functional
T3 sequence (P0AE70 whole entry): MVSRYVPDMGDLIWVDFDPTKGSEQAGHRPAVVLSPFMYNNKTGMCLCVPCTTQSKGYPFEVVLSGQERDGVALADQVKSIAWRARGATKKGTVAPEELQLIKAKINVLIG

[18] = target: T3, Endoribonuclease toxin MazF; experiment: substrate-only fluorescence increase artefacts – biochemical, single-stranded RNase substrate, counter-screen for MazEF activator project, dose response (AID 588502); type: functional
CHO = CHO cell viability loss, potency – luminescence, cytotoxicity control for TLR9-MyD88 binding inhibitor project, dose response (AID 588339); type: functional, cell-based, hamster; settings: Cricetulus griseus;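 further: CHO cells stably coexpressing TLR9 and MyD88 fusions from primary screen; compound exposure lasted 48 hours before viability readout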
Beta Lactamase = Beta Lactamase (Pseudomonas aeruginosa, UniProt Q932Y6); experiment: BLA reporter interference, concentration series – BLA reporter cells, FRET fluorescence, artefact control for TLR9-MyD88 binding inhibitor project, dose response (AID 588341); type: cell-based;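 further: cell based assay in CHO-K1 cells stably expressing beta-lactamase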
Chain of Beta Lactamase (Q932Y6 whole entry): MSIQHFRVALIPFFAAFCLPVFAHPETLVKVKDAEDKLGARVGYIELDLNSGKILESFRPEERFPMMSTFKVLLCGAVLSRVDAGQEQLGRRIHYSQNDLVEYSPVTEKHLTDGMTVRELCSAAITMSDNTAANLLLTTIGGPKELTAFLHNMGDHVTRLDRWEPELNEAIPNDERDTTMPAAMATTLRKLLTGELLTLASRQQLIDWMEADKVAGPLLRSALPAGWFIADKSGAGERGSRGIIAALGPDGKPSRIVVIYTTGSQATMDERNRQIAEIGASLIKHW

Trypsin = Trypsin (Sus scrofa, UniProt P00761); experiment: trypsin protease activity blockade – biochemical, quenched peptide fluorescence, cherry-pick, selectivity assay for Rce1 protease inhibitor project, dose response (AID 488789)
Chain of Trypsin (P00761 whole entry): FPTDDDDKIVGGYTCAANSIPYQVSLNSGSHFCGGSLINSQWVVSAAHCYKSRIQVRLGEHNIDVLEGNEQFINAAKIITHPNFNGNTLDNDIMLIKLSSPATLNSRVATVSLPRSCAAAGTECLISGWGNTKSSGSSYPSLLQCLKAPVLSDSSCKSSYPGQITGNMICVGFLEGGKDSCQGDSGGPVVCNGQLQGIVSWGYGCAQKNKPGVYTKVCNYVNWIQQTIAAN

CAAX prenyl protease 2 = CAAX prenyl protease 2 (Homo sapiens, UniProt Q9Y256); experiment: inhibition of Ras-converting CAAX protease Rce1 – biochemical, yeast membranes, quenched-peptide fluorescence, cherry-pick, dose response (AID 588849)
Chain of CAAX prenyl protease 2 (Q9Y256 whole entry): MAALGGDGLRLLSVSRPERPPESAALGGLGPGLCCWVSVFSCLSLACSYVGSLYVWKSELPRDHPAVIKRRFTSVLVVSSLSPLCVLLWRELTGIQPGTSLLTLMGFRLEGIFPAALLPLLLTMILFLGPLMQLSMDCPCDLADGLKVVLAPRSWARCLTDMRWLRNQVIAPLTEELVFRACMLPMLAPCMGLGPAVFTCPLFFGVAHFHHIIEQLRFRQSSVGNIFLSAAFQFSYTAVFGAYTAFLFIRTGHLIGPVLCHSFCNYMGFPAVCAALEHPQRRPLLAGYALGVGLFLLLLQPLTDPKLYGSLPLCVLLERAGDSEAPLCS

Beta-galactosidase = Beta-galactosidase (Escherichia coli, UniProt Q8VNN2); experiment: PubChem AID 485352; type: functional
Chain of Beta-galactosidase (Q8VNN2 whole entry): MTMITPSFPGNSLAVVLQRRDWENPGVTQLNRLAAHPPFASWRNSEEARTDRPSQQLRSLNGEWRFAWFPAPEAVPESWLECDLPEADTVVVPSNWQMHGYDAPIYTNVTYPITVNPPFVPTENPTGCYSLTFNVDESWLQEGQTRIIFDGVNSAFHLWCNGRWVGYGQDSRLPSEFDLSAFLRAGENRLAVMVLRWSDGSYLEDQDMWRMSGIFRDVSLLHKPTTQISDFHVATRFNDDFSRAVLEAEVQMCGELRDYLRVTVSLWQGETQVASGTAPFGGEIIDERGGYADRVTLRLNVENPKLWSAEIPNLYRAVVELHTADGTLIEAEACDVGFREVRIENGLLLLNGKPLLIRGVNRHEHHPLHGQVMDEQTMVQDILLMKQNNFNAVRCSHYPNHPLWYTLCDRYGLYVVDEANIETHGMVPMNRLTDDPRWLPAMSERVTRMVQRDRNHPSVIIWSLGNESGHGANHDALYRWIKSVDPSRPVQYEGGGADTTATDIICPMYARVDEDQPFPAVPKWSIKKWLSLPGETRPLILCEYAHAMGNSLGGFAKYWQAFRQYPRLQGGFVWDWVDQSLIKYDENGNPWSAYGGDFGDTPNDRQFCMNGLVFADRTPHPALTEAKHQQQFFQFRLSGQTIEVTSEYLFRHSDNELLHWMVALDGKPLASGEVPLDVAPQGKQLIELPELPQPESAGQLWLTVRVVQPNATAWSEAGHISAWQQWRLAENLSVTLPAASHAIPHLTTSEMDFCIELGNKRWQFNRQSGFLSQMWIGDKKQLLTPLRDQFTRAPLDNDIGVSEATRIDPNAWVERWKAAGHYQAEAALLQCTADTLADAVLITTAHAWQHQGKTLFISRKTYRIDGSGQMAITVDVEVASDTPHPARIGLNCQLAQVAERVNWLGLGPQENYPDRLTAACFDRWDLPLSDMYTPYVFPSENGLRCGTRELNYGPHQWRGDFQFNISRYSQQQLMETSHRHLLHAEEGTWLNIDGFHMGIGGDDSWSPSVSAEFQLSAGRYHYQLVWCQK

[19] = target: Type-1 angiotensin II receptor (Homo sapiens, UniProt P30556); experiment: antagonism of angiotensin II type 1 receptor – cell-based, uHTS hits, selectivity assay for APJ receptor antagonist project, dose response (AID 463214); type: functional;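 further: antagonist potency against angiotensin II stimulated AT1 response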
Chain of Type-1 angiotensin II receptor (P30556 whole entry): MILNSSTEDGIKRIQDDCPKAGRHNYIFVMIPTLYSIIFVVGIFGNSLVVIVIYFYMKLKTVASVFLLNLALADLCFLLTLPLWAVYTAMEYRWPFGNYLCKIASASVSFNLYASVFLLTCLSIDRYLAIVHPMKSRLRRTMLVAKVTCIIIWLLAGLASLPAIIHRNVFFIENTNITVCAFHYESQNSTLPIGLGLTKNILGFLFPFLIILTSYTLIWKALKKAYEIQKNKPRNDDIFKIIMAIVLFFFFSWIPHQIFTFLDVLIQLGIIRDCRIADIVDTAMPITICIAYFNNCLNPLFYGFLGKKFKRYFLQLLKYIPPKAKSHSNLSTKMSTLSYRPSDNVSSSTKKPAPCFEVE

SMILES: CN(C)[C@@H]1C(=O)C(C(N)=O)=C(O)[C@@]2(O)C(O)=C3C(=O)c4c(O)cccc4[C@@](C)(O)C3C[C@@H]12 (some centres undefined)
- AC50 (Escherichia coli [1]): 1.17 µM (active)
- AC50 (Escherichia coli [2]): 19.9 µM (active)
- CC50 [3]: > 40 µM (active)
- EC50 (Streptococcus): 98 nM (active)
- EC50 [4]: 99 nM (active)

SMILES: COc1ccc(CNCCc2c[nH]c3ccccc23)c(OC)c1C
- AC50 [5]: 14.3 µM (active)
- AC50 [6]: 2.44 µM (active)
- EC50 [7]: > 92.5 µM (inactive)
- AC50 [8]: 5.48 µM (active)
- EC50 [9]: 841 nM (active)
- EC50 [10]: 78.4 µM (inactive)
- AC50 [11]: 24.9 µM (active)
- AC50 [12]: 7.75 µM (active)
- EC50 (Mu-type opioid receptor): 59.5 µM (inactive)

SMILES: COc1c(N2CCN(C(S)=NCc3ccccc3)C(C)C2)c(F)cc2c(=O)c(C(=O)O)cn(C3CC3)c12 (centres undefined)
- IC50 [13]: 5.55 µM (active)
- AC50 (DNA topoisomerase): 27.8 µM (active)
- IC50 (NS3): 14.9 µM (not active)

SMILES: Cc1ccc(C2(O)C[N+](c3ccccc3C)=C3SCCN32)cc1 (centres undefined)
- EC50 (cells [14]): > 350 µM (not active)
- EC50 [7]: > 92.5 µM (inactive)
- EC50 [9]: 376 nM (active)
- EC50 [10]: > 92.5 µM (inactive)
- EC50 (cells [15]): > 350 µM (not active)
- EC50 (Mu-type opioid receptor): 2.83 µM (active)

SMILES: Cc1ccc(CSC2=Nc3ccccc3C3=NC(=O)CN23)cc1
- AC50 (DNA topoisomerase): 2.02 µM (active)

SMILES: c1ccc2cc(C3CCCCC3)ncc2c1
- AC50 (HeLa): 36.7 µM (active)

SMILES: COC[C@H]1OC(=O)c2coc3c2[C@@]1(C)C1=C(C3=O)[C@@H]2CCC(=O)[C@@]2(C)C[C@H]1OC(C)=O [WORTMANNIN]
- AC50 [16]: 363 nM (active)
- EC50 [17]: > 99 µM (inactive)
- EC50 [18]: > 99 µM (inactive)

SMILES: COc1ccc2c(c1)oc(=O)c1cc(OC)ccc12
- AC50 (HeLa): 46.8 µM (active)

SMILES: COc1ccc(C)cc1S(=O)(=O)N(CC(=O)NC1CCCC1)c1ccc(F)cc1
- AC50 (Escherichia coli [1]): 37.2 µM (active)

SMILES: Nc1c(C(=O)Nc2ccccc2F)sc2nc(-c3cccnc3)ccc12
- IC50 (CHO): 21.7 µM (inactive)
- IC50 (Beta Lactamase): 14 µM (inactive)

SMILES: CC(=O)Oc1ccc2c(c1)OC(c1ccccc1)CC21CC(C)(C)N=C(S)N1 (centres undefined)
- AC50 (Escherichia coli [2]): 31.7 µM (active)

SMILES: Cc1c(C)c2c(OCC(=O)NCc3ccncc3)cc3c(c2oc1=O)CCC(C)(C)O3
- AC50 (Trypsin): 5.4 µM (active)
- AC50 (CAAX prenyl protease 2): 759 nM (active)

SMILES: Cc1cccc(NC(=O)c2ccc(NCCc3ccccc3)c([N+](=O)[O-])c2)c1
- EC50 [17]: 17.9 µM (active)
- EC50 [18]: > 99 µM (inactive)

SMILES: CC(=O)c1ccc(NC(=O)CCC(=O)OCC(=O)c2cccc([N+](=O)[O-])c2)cc1
- EC50 (Beta-galactosidase): > 40 µM (inactive)
- IC50 [19]: 34.5 µM (not active)
